# Results taken from patent publication US20130011376A1, “Methods for Enhancing Natural Killer Cell Proliferation and Activity” (GAMIDA CELL LTD., priority 2009, published 2013).
# Columns and labels:
# Type in all cases: cell-based, human
# [1] = test system: CD3+ T cells and CD3+CD56+ NKT cells; experiment: T and NKT cell fractions in peripheral blood NK cell cultures (FACS); conditions: increasing nicotinamide concentration (2.5 to 7.5 mM), three weeks
# Description: Purified CD56+ or CD56+CD3− cells from total nuclear or mononuclear cells or from the fraction depleted from CD34+ or CD133+ cells were cultured in culture bags, T-Flasks or 24 well plates at a concentration of 1-100×10^4 cells/ml in MEMα/10% FCS or CellGro SCGM (Cell Genix)/5% Human Serum/LiforCell® FBS Replacement (Lifeblood Products) containing the following human recombinant cytokines:, interleukin-2 (IL-2) (5-50 ng/ml), interleukin-15 (IL-15), FLT-3 or SCF or FLT3 and SCF or IL-2 and IL-15 or IL-2 only (Perpo Tech, Inc., Rocky Hill, N.J., USA), with or without nicotinamide, and incubated at 37° C. in a humidified atmosphere of 5% CO2 in air. The cultures were topped up once or twice a week with the same volume of fresh medium containing growth factors with or without nicotinamide. […]
# [2] = test system: cord blood NK cells (CD56+); experiment: Ex-vivo proliferation of purified cord blood CD56+ NK cells cultured with cytokines and nicotinamide; conditions: for proliferation of NK cells relative to growth factors (cytokines) alone: 14 days
# Description: Cells were obtained from umbilical cord blood after normal full-term delivery (informed consent was given). Samples were collected and frozen within 24 hours postpartum. Briefly, cord blood was collected by gravity from delivered placentas, the leukocyte-rich fraction was separated by density gradient centrifugation, cells mixed with DMSO (10%) and then frozen at −80° C. Prior to use, the cells were thawed in Dextran buffer (Sigma, St. Louis, Mo., USA) containing 2.5% human serum albumin (HSA) (Bayer Corp. Elkhart, Ind., USA), and the cryoprotectant removed.
# Cord blood (CB), bone marrow (BM) or peripheral blood (PB) cells were layered on a Ficoll-Hypaque gradient (1.077 g/mL; Sigma), and centrifuged at 800×g for 30 minutes for separation of the mononuclear cells. The cells in the interface layer were collected and washed three times in phosphate-buffered saline (PBS) (Biological Industries, Israel) containing 0.5% HSA. To purify the CD56+ cells, the mononuclear cell fraction was subjected to two cycles of immunomagnetic bead separation, using a “MiniMACS or CliniMACS CD56 progenitor cell isolation kit” (Miltenyi Biotec Bergisch, Gladbach, Germany), according to the manufacturer's recommendations. Briefly, CD56+ cells are reacted with CD56+ specific magnetic immunobeads, separated and with a magnetic separator, and purified from unbound cells by washing. The purity of the CD56+ population thus obtained is approximately 92%, as evaluated by flow cytometry.
# (§1) 2. Purified CD56+ or CD56+CD3− cells from total nuclear or mononuclear cells or from the fraction depleted from CD34+ or CD133+ cells were cultured in culture bags, T-Flasks or 24 well plates at a concentration of 1-100×10^4 cells/ml in MEMα/10% FCS or CellGro SCGM (Cell Genix)/5% Human Serum/LiforCell® FBS Replacement (Lifeblood Products) containing the following human recombinant cytokines:, interleukin-2 (IL-2) (5-50 ng/ml), interleukin-15 (IL-15), FLT-3 or SCF or FLT3 and SCF or IL-2 and IL-15 or IL-2 only (Perpo Tech, Inc., Rocky Hill, N.J., USA), with or without nicotinamide, and incubated at 37° C. in a humidified atmosphere of 5% CO2 in air. The cultures were topped up once or twice a week with the same volume of fresh medium containing growth factors with or without nicotinamide. Eventually cultures can be supplemented once or several times a week with IL-2 and or IL-2 and IL-15. To estimate the number of cells in culture, cell samples were stained with trypan blue for counting. At various time points, samples were taken for FACS analysis to assay the relative fractions of NK cells, CD56+CD3−, CD56+CD3+, CD34+CD56+, CD56+CD16+ and/or CD56+ NKG2A cells.
# In order to calculate the number of NK cells on day 0, the total number of cells seeded on day 0 was multiplied by the percent of CD56+/CD3− cells measured by the FACS on day 0.
# To determine total number of cells on day 7, 14 and 21, the cell count/ml was multiplied by the volume of the culture medium. In order to determine the number of NK cells in culture, the total number of cells in culture was multiplied by the percent of CD56+/CD3− cells measured with the FACS on days 7, 14 or 21. To measure fold expansion, total number of NK cells on days 7, 14 and 21 was divided by total number of NK cells seeded in culture on day-0.
# [3] = test system: purified cord-blood derived CD56+ cells; experiment: Inhibitory CD56+NKG2A cell fraction in cultured cord blood CD56+ cells (FACS); conditions: 1, 2.5 and 5 mM nicotinamide, 3 weeks culture
# Description: as §1, with “Eventually cultures can be supplemented once or several times a week with IL-2 and or IL-2 and IL-15. To estimate the number of cells in culture, cell samples were stained with trypan blue for counting. At various time points, samples were taken for FACS analysis to assay the relative fractions of NK cells, CD56+CD3−, CD56+CD3+, CD34+CD56+, CD56+CD16+ and/or CD56+ NKG2A cells.” left out
# The cells were washed with a PBS solution containing 1% BSA, and stained (at 4° C. for 30 min) with fluorescein isothiocyanate (FITC)- or phycoerythrin (PE)-conjugated antibodies or allophycocyanin (APC). The cells were then washed in the above buffer and analyzed using a FACScalibur® flow cytometer (Becton Dickinson, San Jose, Calif., USA). […] Emission of 10^4 cells was measured using logarithmic amplification, and analyzed using the CellQuest software (Becton Dickinson). Cells stained with FITC, PE and APC-conjugated isotype control antibodies were used to determine background fluorescence. […]
structure (smiles),measurement,setting,value
NC(=O)c1cccnc1 [nicotinamide],fraction of CD3+ T cells,[1],reduction
same,fraction of CD3+CD56+ NKT cells,[1],reduction
same,NK cell proliferation relative to growth factors (cytokines) alone,"[2]; 0.5 mM to 5 mM nicotinamide, three weeks culture",up to 2.5 times
same,proliferation of NK cells relative to growth factors (cytokines) alone,"[2]; 2.5 mM nicotinamide, IL-2 and IL-15",greater than 4 times
same,proliferation of NK cells relative to growth factors (cytokines) alone,"[2]; 5 mM nicotinamide, compared with 2.5 mM",even greater
same,expansion of cord blood CD56+ NK cultures vs cytokine-only controls,"[2]; 1 to 7.5 mM nicotinamide, up to 3 weeks, Flt-3, IL-2 and IL-15",dose-dependent increase in the expansion
same,proliferation of NK cells,"[2]; all concentrations tested, as early as 14 days of culture",significantly enhanced proliferation
same,prevalence of the inhibitory CD56+NKG2A cell fraction among NK cells,[3],significant and dose dependent reduction
